Assays:
HaCaT cells = assay: In vitro cytotoxic activity, inhibition of cell proliferation, ATP bioluminescence (ViaLight); assay type: cell-based, human
Method: (§1) This compound (abbreviated ‘MTX-Pen’ in the tables below) was evaluated for its ability to inhibit cell proliferation of normal (immortalised) human cells (HaCaT cells, Tables 1 & 2) and a human colorectal cancer cell line (HT29, Table 3).
(§2) Assay procedure—Cells were seeded into 96-well plates at 2,500 cells/well in DMEM with 10% FCS and antibiotics. After overnight incubation, test compound dilutions in cell medium were prepared and were added to the cells. Samples were taken 1, 2, 3, and 4 days after compound addition. Nucleotide Releasing Reagent (LumiTech ViaLight kit) was added in order to lyse the cells and release ATP. After incubation at room temperature (5 min), the mixtures were transferred to opaque 96-well plates and stored at −20° C. until analysis. After loading plates into a luminometer (Lucy 1, Labtech International), ATP Monitoring Reagent (20 μL/well, LumiTech ViaLight kit) was added to each well successively and light intensity was measured immediately. Six readings were taken per sample. Each assay point was established using six replicates and appropriate controls. […] Statistically significant results in the tables below are printed in bold face.
(§3) This compound (abbreviated ‘MTX-Pen’ in tables below) was evaluated for its ability to inhibit cell proliferation of normal (immortalised) human cells (HaCaT cells, Tables 1 & 2) and a human colorectal cancer cell line (HT29, Table 3).
(§4) Assay procedure—Cells were seeded into 96-well plates at 2,500 cells/well in DMEM with 10% foetal calf serum and antibiotics. After overnight incubation, test compound dilutions in cell medium were prepared and were added to the cells. Samples were taken 1, 2, 3, and 4 days after compound addition. Nucleotide Releasing Reagent (LumiTech ViaLight kit) was added in order to lyse the cells and release ATP. After incubation at room temperature (5 min), the mixtures were transferred to opaque 96-well plates and stored at −20° C. until analysis. After loading plates into a luminometer (Lucy 1, Labtech International), ATP Monitoring Reagent ([…], LumiTech ViaLight kit) was added to each well successively and light intensity was measured immediately. Six readings were taken per sample. Each assay point was established using six replicates and appropriate controls.

HT29 = assay: as above; assay type: cell-based, human
Method: as §1, §2, §3, §4

[1] = Table 1, HaCaT, Dose 0.2 μM, Day 1
[2] = Table 1, HaCaT, Dose 0.2 μM, Day 2
[3] = Table 1, HaCaT, Dose 0.2 μM, Day 3
[4] = Table 1, HaCaT, Dose 0.2 μM, Day 4
[5] = Table 1, HaCaT, Dose 0.5 μM, Day 1
[6] = Table 1, HaCaT, Dose 0.5 μM, Day 2
[7] = Table 1, HaCaT, Dose 0.5 μM, Day 3
[8] = Table 1, HaCaT, Dose 0.5 μM, Day 4
[9] = Table 1, HaCaT, Dose 1.5 μM, Day 1
[10] = Table 1, HaCaT, Dose 1.5 μM, Day 2
[11] = Table 1, HaCaT, Dose 1.5 μM, Day 3
[12] = Table 1, HaCaT, Dose 1.5 μM, Day 4
[13] = Table 1, HaCaT, Dose 4.4 μM, Day 1
[14] = Table 1, HaCaT, Dose 4.4 μM, Day 2
[15] = Table 1, HaCaT, Dose 4.4 μM, Day 3
[16] = Table 1, HaCaT, Dose 4.4 μM, Day 4
[17] = Table 1, HaCaT, Dose 13.3 μM, Day 1
[18] = Table 1, HaCaT, Dose 13.3 μM, Day 2
[19] = Table 1, HaCaT, Dose 13.3 μM, Day 3
[20] = Table 1, HaCaT, Dose 13.3 μM, Day 4
[21] = Table 1, HaCaT, Dose 40.0 μM, Day 1
[22] = Table 1, HaCaT, Dose 40.0 μM, Day 2
[23] = Table 1, HaCaT, Dose 40.0 μM, Day 3
[24] = Table 1, HaCaT, Dose 40.0 μM, Day 4

In the case of `CN(Cc1cnc2nc(N)nc(N)c2n1)c1ccc(C(=O)N[C@@H](CCC(=O)O)C(=O)O)cc1` [MTX, methotrexate], the “% Cell Death” value (HaCaT cells; [1]) is reported as 7%, the “% Cell Death” value (HaCaT cells; [2]) is reported as 11% and the “% Cell Death” value (HaCaT cells; [3]) is reported as 79%. The “% Cell Death” value (HaCaT cells; [4]) was 93%, the “% Cell Death” value (HaCaT cells; [5]) was −4% and the “% Cell Death” value (HaCaT cells; [6]) was 31%. For the same compound, the “% Cell Death” value (HaCaT cells; [7]) was 75%, the “% Cell Death” value (HaCaT cells; [8]) was 93% and the “% Cell Death” value (HaCaT cells; [9]) was 13%. The “% Cell Death” value (HaCaT cells; [10]) was 31%, the “% Cell Death” value (HaCaT cells; [11]) was 77% and the “% Cell Death” value (HaCaT cells; [12]) was 94%. The “% Cell Death” value (HaCaT cells; [13]) was 4%, the “% Cell Death” value (HaCaT cells; [14]) was 24% and the “% Cell Death” value (HaCaT cells; [15]) was 77%. The “% Cell Death” value (HaCaT cells; [16]) was 93%, the “% Cell Death” value (HaCaT cells; [17]) was 22% and the “% Cell Death” value (HaCaT cells; [18]) was 35%. The “% Cell Death” value (HaCaT cells; [19]) was 82%, the “% Cell Death” value (HaCaT cells; [20]) was 92% and the “% Cell Death” value (HaCaT cells; [21]) was 4%. For the same compound, the “% Cell Death” value (HaCaT cells; [22]) was 15%, the “% Cell Death” value (HaCaT cells; [23]) was 79% and the “% Cell Death” value (HaCaT cells; [24]) was 92%. For the same compound, the “% Cell Death” value (HaCaT cells; Table 2, HaCaT, Dose 0.1 μM, Day 1) was 19%, the “% Cell Death” value (HaCaT cells; Table 2, HaCaT, Dose 0.1 μM, Day 2) was 7% and the “% Cell Death” value (HaCaT cells; Table 2, HaCaT, Dose 0.1 μM, Day 3) was 45%. The “% Cell Death” value (HaCaT cells; Table 2, HaCaT, Dose 0.1 μM, Day 4) was 65%, the “% Cell Death” value (HaCaT cells; Table 2, HaCaT, Dose 0.2 μM, Day 1) was 3% and the “% Cell Death” value (HaCaT cells; Table 2, HaCaT, Dose 0.2 μM, Day 2) was 41%. For the same compound, the “% Cell Death” value (HaCaT cells; Table 2, HaCaT, Dose 0.2 μM, Day 3) was 94%, the “% Cell Death” value (HaCaT cells; Table 2, HaCaT, Dose 0.2 μM, Day 4) was 86% and the “% Cell Death” value (HaCaT cells; Table 2, HaCaT, Dose 0.5 μM, Day 1) was 0%. For the same compound, the “% Cell Death” value (HaCaT cells; Table 2, HaCaT, Dose 0.5 μM, Day 2) was 59%, the “% Cell Death” value (HaCaT cells; Table 2, HaCaT, Dose 0.5 μM, Day 3) was 96% and the “% Cell Death” value (HaCaT cells; Table 2, HaCaT, Dose 0.5 μM, Day 4) was 91%. The “% Cell Death” value (HaCaT cells; Table 2, HaCaT, Dose 1.5 μM, Day 1) was 14%, the “% Cell Death” value (HaCaT cells; Table 2, HaCaT, Dose 1.5 μM, Day 2) was 67% and the “% Cell Death” value (HaCaT cells; Table 2, HaCaT, Dose 1.5 μM, Day 3) was 96%. The “% Cell Death” value (HaCaT cells; Table 2, HaCaT, Dose 1.5 μM, Day 4) was 91%, the “% Cell Death” value (HaCaT cells; Table 2, HaCaT, Dose 4.4 μM, Day 1) was 21% and the “% Cell Death” value (HaCaT cells; Table 2, HaCaT, Dose 4.4 μM, Day 2) was 70%. For the same compound, the “% Cell Death” value (HaCaT cells; Table 2, HaCaT, Dose 4.4 μM, Day 3) was 97%, the “% Cell Death” value (HaCaT cells; Table 2, HaCaT, Dose 4.4 μM, Day 4) was 92% and the “% Cell Death” value (HT29; Table 3, HT 29, Dose 0.1 μM, Day 1) was 6%. The “% Cell Death” value (HT29; Table 3, HT 29, Dose 0.1 μM, Day 2) was −17%, the “% Cell Death” value (HT29; Table 3, HT 29, Dose 0.1 μM, Day 3) was 52% and the “% Cell Death” value (HT29; Table 3, HT 29, Dose 0.1 μM, Day 4) was 84%. For the same compound, the “% Cell Death” value (HT29; Table 3, HT 29, Dose 0.2 μM, Day 1) was 10%, the “% Cell Death” value (HT29; Table 3, HT 29, Dose 0.2 μM, Day 2) was −5% and the “% Cell Death” value (HT29; Table 3, HT 29, Dose 0.2 μM, Day 3) was 54%. For the same compound, the “% Cell Death” value (HT29; Table 3, HT 29, Dose 0.2 μM, Day 4) was 85%, the “% Cell Death” value (HT29; Table 3, HT 29, Dose 0.5 μM, Day 1) was 15% and the “% Cell Death” value (HT29; Table 3, HT 29, Dose 0.5 μM, Day 2) was −12%. For the same compound, the “% Cell Death” value (HT29; Table 3, HT 29, Dose 0.5 μM, Day 3) was 52%, the “% Cell Death” value (HT29; Table 3, HT 29, Dose 0.5 μM, Day 4) was 88% and the “% Cell Death” value (HT29; Table 3, HT 29, Dose 1.5 μM, Day 1) was 17%. For the same compound, the “% Cell Death” value (HT29; Table 3, HT 29, Dose 1.5 μM, Day 2) was −5%, the “% Cell Death” value (HT29; Table 3, HT 29, Dose 1.5 μM, Day 3) was 48% and the “% Cell Death” value (HT29; Table 3, HT 29, Dose 1.5 μM, Day 4) was 84%. The “% Cell Death” value (HT29; Table 3, HT 29, Dose 4.4 μM, Day 1) was −14%, the “% Cell Death” value (HT29; Table 3, HT 29, Dose 4.4 μM, Day 2) was −4% and the “% Cell Death” value (HT29; Table 3, HT 29, Dose 4.4 μM, Day 3) was 58%. The “% Cell Death” value (HT29; Table 3, HT 29, Dose 4.4 μM, Day 4) was 86%.

In the case of “H-Ala-Arg-Gln-Ile-Lys-Ile-Trp-Phe-Gln-Asn-Arg-Arg-Met-Lys-Trp-Lys-Lys-OH (H-ARQIKIWFQNRRMKWKK-OH) [Pen, the free vector]”, the “% Cell Death” value (HaCaT cells; [1]) is reported as 26%, the “% Cell Death” value (HaCaT cells; [2]) is reported as 0% and the “% Cell Death” value (HaCaT cells; [3]) is reported as −3%. For the same compound, the “% Cell Death” value (HaCaT cells; [4]) was 21%, the “% Cell Death” value (HaCaT cells; [5]) was 6% and the “% Cell Death” value (HaCaT cells; [6]) was −6%. For the same compound, the “% Cell Death” value (HaCaT cells; [7]) was −29%, the “% Cell Death” value (HaCaT cells; [8]) was −26% and the “% Cell Death” value (HaCaT cells; [9]) was 16%. The “% Cell Death” value (HaCaT cells; [10]) was −31%, the “% Cell Death” value (HaCaT cells; [11]) was 2% and the “% Cell Death” value (HaCaT cells; [12]) was −14%. The “% Cell Death” value (HaCaT cells; [13]) was 8%, the “% Cell Death” value (HaCaT cells; [14]) was −4% and the “% Cell Death” value (HaCaT cells; [15]) was −1%. The “% Cell Death” value (HaCaT cells; [16]) was 10%, the “% Cell Death” value (HaCaT cells; [17]) was 18% and the “% Cell Death” value (HaCaT cells; [18]) was 0%. The “% Cell Death” value (HaCaT cells; [19]) was −17%, the “% Cell Death” value (HaCaT cells; [20]) was −6% and the “% Cell Death” value (HaCaT cells; [21]) was 16%. The “% Cell Death” value (HaCaT cells; [22]) was −22%, the “% Cell Death” value (HaCaT cells; [23]) was 5% and the “% Cell Death” value (HaCaT cells; [24]) was 12%.

From patent publication US6992169B2, “Carrier based drug delivery system” (Cyclacel Limited, priority 1998, dated 2006)
